≈ marks a conversion by molar mass, not a printed value.
Legend:
[1] = physchem; settings: zebrafish embryo incubation medium, aqueous buffer, kinetic from dmso stock
[2] = test system: HCV pseudoparticle (HCVpp; JFH1 genotype 2a, Con1 genotype 1b) entry into Huh-7.5; test: HCVpp cell entry assay; settings: Hepatitis C virus, GETYPE1B|GETYPE2A, Huh7.5, 72 h, read-out: concentration of 50% entry inhibition
[3] = test system: U-2 OS cells; test: Mitochondrial superoxide formation (MitoSOX Red); assay type: cell-based, human; settings: n = 6
Experimental: CYS was tested for its potential to induce oxidative stress in U-2 OS cells. Therefore, 120 µL of a cell suspension in McCoy’s (+10% FBS) containing 5 × 10^4 cells/mL were seeded into black 96-well imaging plate (BD Falcon). The plates were incubated for two days (37 °C, 5% CO2) until the cells reached approximately 70% confluence. Subsequently, the cells were washed with HBSS buffer, prior to adding CYS (20 µM) and the ROS inducer menadione (50 µM) as positive control, along with the staining solution (HBSS, calcium, magnesium, 5 µM MitoSOX red and 10 µg/mL Hoechst (Thermo)). To check for ROS protective properties, menadione (50 µM) was added directly to the staining solution. […] Afterwards, the cells were washed twice with HBSS. The cells were imaged using an automated fluorescence microscope (Celldiscoverer 7, Zeiss) (excitation: […]) to analyze the fluorescence intensity of the superoxide tracker MitoSOX red. The experiment was carried out with six replicates per condition. Quantification was done by high-content image analysis using the ZEN software (version 3.4, blue edition, Zeiss). Data presentation was done using GraphPad Prism (version 10.0.3) with ordinary one-way ANOVA including multiple comparisons to the control group for statistical analysis of the sample without ROS induction via menadione in the staining solution. Multiple unpaired t test was used to compare samples for ROS protective properties, which were incubated with menadione in the staining solution.

[4] = test system: HCT116 (human, colon); test: MTT cytotoxicity HCT116; assay type: cell-based; settings: HCT-116, 72 h, n = 3
Experimental: (§1) All cell types were cultivated at 37 °C with 5% CO2. HepG2, HEK293, HCT116, CHO-K1, HeLa-CCL-2 and Huh-7.5 were purchased from ATCC. The respective cell media (Gibco) were supplemented with 10% FBS (Gibco) before usage. Cells were used between passages #5 and #30. To obtain biological repeats, cells were split separately for at least two passages.
(§2) Cells were washed with PBS and 0.5 mL trypsin was added. Afterwards, cells were incubated for 5 min before adding 10 mL medium containing 10% FBS. Per well, 120 µL cell suspension (5 × 10^4 cells/mL) was seeded in transparent 96-well cell bind plates and incubated for 2 h (37 °C, 5% CO2). A dilution series (1:3) of test compounds was prepared in respective media containing 10% FBS and added (60 µL) to the prepared cell plate. Cells were incubated for a further 72 h (37 °C, 5% CO2). Next, 20 µL MTT (5 mg/mL in PBS) was added to each well and incubated for 2 h (37 °C, 5% CO2). The wells were emptied and 100 µL isopropanol/10 N HCl (1000:4) per well was added.
(§3) The plates were analyzed by measuring the absorbance at 570 nm (plate reader Infinite® 200 Pro, Tecan). After normalization of data to the respective solvent controls, the calculated percentage of growth inhibition was plotted using GraphPad Prism software (version 10.0.2).

[5] = test system: HEK293 (human, kidney); test: MTT cytotoxicity HEK293; assay type: cell-based; settings: HEK293, MTT, 72 h, n = 3, read-out: IC50 HEK293 (human, kidney)
Experimental: as §1, §2, §3

[6] = Mouse plasma protein binding; assay type: in vitro ADME; settings: read-out: Mouse PPB (converted)
[7] = test system: HeLa (human, cervix); test: MTT cytotoxicity HeLa; assay type: cell-based; settings: 72 h, n = 3
Experimental: as §1, §2, §3

[8] = Metabolic stability in mouse hepatocytes; assay type: in vitro ADME
Experimental: For the evaluation of combined phase I and phase II metabolic stability, the compound (1 μM) was incubated with 0.25 × 10^6 cells/mL of pooled mouse hepatocytes (Xenotech, Kansas City, USA). Cells were thawed in Leibovitz’s L-15 medium without phenol red (ThermoFisher Scientific, Waltham, USA). Briefly, cells were transferred into 50 mL of medium, followed by centrifugation at 55 g for 6 min. Supernatant was discarded, and the cell count was determined after gently resuspending the cell pellet in 1mL of medium. Hepatocytes were diluted to 0.5 × 10^6 cells/mL and incubated at 37 °C, 700 rpm for 10 min, to achieve the desired final cell count after addition of an equal volume of test compounds in medium, leading to a final test concentration of 1 µM at 1% DMSO. […] For the determination of metabolism in the presence of cobicistat, this drug was added together with test compounds in the desired concentration range. The metabolic stability of testosterone, verapamil, ketoconazole and 7-hydroxycoumarine were determined in parallel to confirm the enzymatic activity of mouse hepatocytes. […] Concentration of the remaining test compound at the different time points was analyzed by HPLC-MS/MS (Vanquish Flex coupled to a TSQ Altis Plus, Thermo Fisher, Dreieich, Germany) and used to determine half-life (t1/2). Intrinsic clearance was calculated as follows:2 CLintµL/min×10^6cells=Incubation volumeµL×ln(2)/Cells in incubation mixture[10^6]×t1/2
For metabolite identification studies, test compounds were incubated at 10 µM final concentration and samples were analyzed using HPLC-HRMS (Ultimate 3000 coupled to a Q Exactive Focus, Thermo Fisher, Dreieich, Germany). […] Blank samples using DMSO were run in parallel for background subtraction. Sample processing for metabolite identification was performed using Compound Discoverer 3.2 (Thermo Fisher, Dreieich, Germany). Metabolites were identified based on mass shifts and feasibility of the metabolic reaction, also in view of MS peak intensities over time.

[9] = Metabolic stability in mouse liver microsomes; assay type: in vitro ADME; settings: pooled mouse liver microsomes, 0.5 mg/mL microsomes, NADPH
Experimental: The metabolic stability of testosterone, verapamil and ketoconazole was determined in parallel to confirm the enzymatic activity of mouse liver microsomes. For combination experiments, cobicistat was added to the incubation mixture together with test compounds. […] Concentration of the remaining test compound at the different time points was analyzed by HPLC-MS/MS (Vanquish Flex coupled to a TSQ Altis Plus, Thermo Fisher, Dreieich, Germany) and used to determine half-life (t1/2).

[10] = Mouse plasma stability; assay type: in vitro ADME; settings: read-out: Mouse plasma t1/2
[11] = biological target: T1, human DNA topoisomerase IIα (TOP2A) (Homo sapiens, UniProt P11388); test: human topoisomerase II alpha decatenation assay; assay type: biochemical; settings: n = 3, read-out: IC50 against TOP2A
T1 construct: purchased Inspiralis
Experimental: Inhibition of topoisomerase activity was examined using the human topoisomerase II alpha decatenation assay kit (Inspiralis) as indicated by the manufacturer. Briefly, a compound dilution series was prepared in DMSO. Water, dilution buffer, assay buffer, plasmid and enzyme were mixed with the compound solution and incubated at 37 °C for 30 min. A positive control (100% activity) was prepared without the compound, and a negative control (0% activity) was prepared without the compound and the enzyme. The reaction was stopped by adding gSTEB-buffer and chloroform/isoamylalcohol (24:1 v/v). The samples were vortexed and centrifuged before running gel electrophoresis. The gel was stained with ethidium bromide and imaged using a Fusion Fx gel imager (Vilber Lourmat). Subsequent analysis was done using ImageJ and GraphPad Prism (Version 10.0.2).

[12] = test system: U2OS (human, osteosarcoma); test: MTT cytotoxicity U2OS; assay type: cell-based; settings: 72 h, n = 3
Experimental: as §2, §3

[13] = test system: HepG2 (human, liver); test: MTT cytotoxicity HepG2; assay type: cell-based; settings: 72 h, n = 3
Experimental: as §1, §2, §3

[14] = test system: SCARB1; set-up: method as in PMID 19815817; settings: previous in vivo mouse studies; cited from earlier work
[15] = set-up: method as in PMID 26437376, PMID 24041792; settings: cited from earlier work

T1 sequence (P11388 whole entry): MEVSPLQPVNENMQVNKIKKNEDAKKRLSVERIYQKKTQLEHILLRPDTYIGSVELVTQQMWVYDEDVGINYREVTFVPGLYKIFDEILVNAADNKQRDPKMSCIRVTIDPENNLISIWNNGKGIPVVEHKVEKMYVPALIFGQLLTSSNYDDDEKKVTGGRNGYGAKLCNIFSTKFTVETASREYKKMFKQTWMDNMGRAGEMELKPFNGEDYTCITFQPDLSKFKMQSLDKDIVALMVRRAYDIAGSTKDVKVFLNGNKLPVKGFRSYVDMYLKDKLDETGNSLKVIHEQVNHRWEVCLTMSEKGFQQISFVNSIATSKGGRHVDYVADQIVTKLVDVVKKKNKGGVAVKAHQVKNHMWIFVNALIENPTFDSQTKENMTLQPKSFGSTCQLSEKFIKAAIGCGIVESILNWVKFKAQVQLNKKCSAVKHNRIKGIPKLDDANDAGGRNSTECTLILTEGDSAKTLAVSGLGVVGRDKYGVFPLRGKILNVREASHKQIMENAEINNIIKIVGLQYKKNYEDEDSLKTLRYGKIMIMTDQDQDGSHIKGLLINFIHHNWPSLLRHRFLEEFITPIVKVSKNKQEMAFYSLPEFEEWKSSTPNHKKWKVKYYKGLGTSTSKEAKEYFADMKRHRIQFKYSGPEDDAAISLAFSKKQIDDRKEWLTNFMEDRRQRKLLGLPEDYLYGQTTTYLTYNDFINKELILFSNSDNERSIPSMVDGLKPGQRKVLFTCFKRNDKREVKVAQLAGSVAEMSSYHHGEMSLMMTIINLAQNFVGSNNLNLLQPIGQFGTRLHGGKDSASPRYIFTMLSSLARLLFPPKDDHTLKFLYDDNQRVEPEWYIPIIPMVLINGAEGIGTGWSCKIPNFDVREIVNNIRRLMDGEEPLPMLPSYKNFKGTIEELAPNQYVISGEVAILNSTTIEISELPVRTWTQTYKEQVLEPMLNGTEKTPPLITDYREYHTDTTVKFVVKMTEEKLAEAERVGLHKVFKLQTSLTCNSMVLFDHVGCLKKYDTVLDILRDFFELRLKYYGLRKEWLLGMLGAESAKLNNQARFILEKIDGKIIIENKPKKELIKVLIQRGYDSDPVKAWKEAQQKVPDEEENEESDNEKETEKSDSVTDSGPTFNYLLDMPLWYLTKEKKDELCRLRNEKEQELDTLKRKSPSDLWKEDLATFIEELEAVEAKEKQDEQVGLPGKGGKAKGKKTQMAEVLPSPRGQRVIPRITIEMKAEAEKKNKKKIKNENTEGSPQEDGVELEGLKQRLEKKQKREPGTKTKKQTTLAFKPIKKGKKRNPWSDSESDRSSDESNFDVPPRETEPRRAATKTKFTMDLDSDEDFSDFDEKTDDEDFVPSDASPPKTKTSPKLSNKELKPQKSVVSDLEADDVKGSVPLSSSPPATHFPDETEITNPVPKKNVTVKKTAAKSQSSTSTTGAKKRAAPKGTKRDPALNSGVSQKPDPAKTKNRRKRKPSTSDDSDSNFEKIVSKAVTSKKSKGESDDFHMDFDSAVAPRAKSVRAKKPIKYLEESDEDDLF

| Structure (SMILES) | solubility [1] [µM] | IC50 [2] [µM] | basal superoxide radical levels vs DMSO control ([3]; 20 µM, MitoSOX Red, no menadione) | menadione-induced superoxide formation on co-treatment ([3]; CYS 20 µM + menadione 50 µM) | IC50 [4] [µM] | IC50 [5] [µM] | fraction unbound [6] | IC50 [7] [µM] | major metabolic pathways ([8]; metabolite identification, 10 µM, mouse hepatocytes) | hepatocyte CLint at 1 µM ([8]; mouse, pooled mouse hepatocytes, 1 μM, 0.25 × 10^6 cells/mL) [µL/min/1e6 cells] | half-life at 1 µM ([8]; mouse, pooled mouse hepatocytes, 1 μM, 0.25 × 10^6 cells/mL, read-out: Mouse Hepatocytes t1/2) [h] | microsomal CLint at 1 μM ([9]; read-out: MLM Clint) [µL/min/mg] | half-life at 1 µM ([9]; read-out: MLM t1/2) [h] | half-life [10] [h] | IC50 [11] [µM] | IC50 [12] [µM] | IC50 [13] [µM] | effect of SCARB1 suppression in mice [14] | safety in humans [15] |
| --- | --- | --- | --- | --- | --- | --- | --- | --- | --- | --- | --- | --- | --- | --- | --- | --- | --- | --- | --- |
| C=CC1CC1(NC(=O)C12CC(NC(=O)c3ccc(C#N)cc3)(C1)C2)C(=O)Nc1ccc(C(=O)Nc2ccc(C(=O)Nc3ccc(C(=O)O)cc3)c(O)c2OC(C)C)cc1 (stereo not shown) [Cysto-180] | 200 (≈ 159 µg/mL) | ~3.3 | decrease of superoxide radical levels | no significant increase of superoxide | > 20 | > 20 | 0.041 | > 37 | amide bond hydrolysis and glucuronidation | 26 | 0.683 ± 0.267 | < 11.6 | > 2 | > 4 | 12.2 ± 0.63 | > 20 | > 20 |  |  |
| COc1c(NC(=O)C(=O)c2ccc(OCCN3CCOCC3)c3ccccc23)cc(C(C)(C)C)cc1NS(C)(=O)=O [ITX5061] |  |  |  |  |  |  |  |  |  |  |  |  |  |  |  |  |  | increased beneficial HDL cholesterol levels and partially reduced atherosclerotic lesions | safety in humans has been demonstrated |
